Reference: ChEMBL document CHEMBL5725313, “Highly selective c-Met inhibitors as anticancer agents” (2017)
pIC50: −log10 of the molar value.

Biological target: Hepatocyte growth factor receptor (Homo sapiens, UniProt P08581)
Assay: c-Met In Vitro Kinase Assay: Optiplate-384 well plate (PerKinElmer), kinase buffer (50 mM Hepes pH7.5, 25 mM NaCl, 2 mM DTT, 0.01% Tween 20, 5 mM Mg2+, 0.5 mM Mn2+), c-Met kinase (1038-1346AA, prepared in-house), c-Met substrate (PerKinElmer, #TRF0127-M), Lance@Eu-W 1024-anti-phosphotyrosine (PT66), (PerKinElmer, #AD0068), ATP (Invitrogen), DMSO (Sigma, #34869), water (Millipore, model Milli-Q). A mixture of c-Met kinase (final concentration 12.5 nM) and test compound (final DMSO is 0.5%) is pre-incubated at 30° C. for 20 min. Then ATP (final concentration 2.5 uM) and kinase substrate (final concentration 50 nM) are added. The resulting mixture is kept at 30° C. for 1 hr, followed by addition of the c-Met antibody. After 1 hr, the plate is read at 615 nm and 665 nm. The ratio of absorption values at 665 nm and 615 nm is calculated and used for the data analysis as follows. This assay has a Minimum Significant Ratio (MSA) of 2-3.

Sequence of Hepatocyte growth factor receptor (P08581 whole entry): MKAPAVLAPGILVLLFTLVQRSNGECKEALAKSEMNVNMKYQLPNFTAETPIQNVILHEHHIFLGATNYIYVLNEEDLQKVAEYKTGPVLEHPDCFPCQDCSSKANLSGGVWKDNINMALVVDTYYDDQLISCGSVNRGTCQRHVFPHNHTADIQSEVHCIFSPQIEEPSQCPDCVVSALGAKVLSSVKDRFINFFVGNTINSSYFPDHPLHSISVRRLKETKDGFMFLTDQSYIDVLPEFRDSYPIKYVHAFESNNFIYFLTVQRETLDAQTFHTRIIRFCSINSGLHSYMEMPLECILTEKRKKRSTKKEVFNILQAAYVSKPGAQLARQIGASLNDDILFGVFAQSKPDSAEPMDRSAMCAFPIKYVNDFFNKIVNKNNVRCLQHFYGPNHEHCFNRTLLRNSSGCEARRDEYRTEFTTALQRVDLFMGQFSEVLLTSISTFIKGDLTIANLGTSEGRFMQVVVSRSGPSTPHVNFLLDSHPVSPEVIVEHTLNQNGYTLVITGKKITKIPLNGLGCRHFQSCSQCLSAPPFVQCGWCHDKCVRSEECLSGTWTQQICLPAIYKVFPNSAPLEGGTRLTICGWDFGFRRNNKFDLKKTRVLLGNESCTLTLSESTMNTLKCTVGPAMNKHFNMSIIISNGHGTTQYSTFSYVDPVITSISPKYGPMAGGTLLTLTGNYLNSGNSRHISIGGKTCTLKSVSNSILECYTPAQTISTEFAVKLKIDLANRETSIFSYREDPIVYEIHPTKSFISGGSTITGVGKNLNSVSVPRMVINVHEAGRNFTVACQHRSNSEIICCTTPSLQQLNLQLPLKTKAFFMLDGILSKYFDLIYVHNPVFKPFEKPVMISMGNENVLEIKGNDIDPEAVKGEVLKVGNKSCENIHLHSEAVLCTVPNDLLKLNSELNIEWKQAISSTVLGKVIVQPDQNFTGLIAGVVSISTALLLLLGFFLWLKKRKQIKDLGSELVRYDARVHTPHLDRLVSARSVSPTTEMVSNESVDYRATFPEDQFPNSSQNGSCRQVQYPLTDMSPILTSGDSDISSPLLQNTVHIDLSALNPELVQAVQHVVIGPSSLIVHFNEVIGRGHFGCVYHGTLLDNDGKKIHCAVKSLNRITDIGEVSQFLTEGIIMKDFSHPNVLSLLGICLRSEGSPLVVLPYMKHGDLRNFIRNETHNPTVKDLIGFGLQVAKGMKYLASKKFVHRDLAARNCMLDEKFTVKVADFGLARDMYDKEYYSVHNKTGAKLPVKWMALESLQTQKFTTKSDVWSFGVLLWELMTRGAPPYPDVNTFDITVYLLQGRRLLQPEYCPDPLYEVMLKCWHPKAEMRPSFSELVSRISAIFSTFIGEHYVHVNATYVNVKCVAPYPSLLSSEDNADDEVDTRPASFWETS

pIC50	SMILES
6.71	Cn1cc2c(F)c(C(F)(F)c3nnc4ccc(-c5cncc(Cl)c5)nn34)ccc2n1
6.83	CNC(=O)c1ccc(-c2ccc3nnc(C(F)(F)c4ccc5nn(C)cc5c4F)n3n2)cn1
6.58	Cn1cc2c(F)c(C(F)(F)c3nnc4ccc(-c5cncc(F)c5)nn34)ccc2n1
6.92	Cc1cncc(-c2ccc3nnc(C(F)(F)c4ccc5nn(C)cc5c4F)n3n2)c1
